Consider 10 compounds from patent US20260274814A1, “THIENYL COMPOUNDS FOR THE TREATMENT OF A CENTRAL NERVOUS SYSTEM DISEASE OR DISORDER” (Coreterra Therapeutics, Inc., priority 2023, published 2026).

The structures appear in SMILES notation. Structures can show the parent of a compound that is named as a salt. Where two headings read alike, the source gives them in different places.

For the assay, the system named is mice. Put plainly: Neuropharmacological Assay (SmartCube): automated behavioral signature of compound-treated mice compared with a database of reference drug classes. As to conditions: for minimal effective dose: Mus musculus, ip, i.p., that dose is shown; for AD / AG / AN / AP / AX / CE / HL / MS / PS / SH / UK: 3.0 mg/kg i.p., 15 min before test. In kind it is in vivo. A digest of the protocol:
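Dose-response work typically spanned 0.3–10 mpk, widened or narrowed to obtain a full curve, with i.p. administration 15 min pre-test. MED is defined as the dose producing ≥45% total SmartCube activity; single-dose entries list the tested dose.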

Where [1] appears, read: dose having 45% or more total activity in SmartCube, if only one dose was tested, read-out: MED (minimal effective dose).
Where [2] appears, read: probability that activity matches this class of agents.
The mark [3] stands for this setting: minimal effective dose: dose having 45% or more total activity in SmartCube, if only one dose tested, read-out: MED.

As for `CNC1(C)CCc2c(F)csc2C1` (stereo not drawn) [Compound 109, 3-fluoro-N, 6-dimethyl-5,7-dihydro-4H-benzothiophen-6-amine hydrochloride], the minimal effective dose under setting [1] is under 3 mg/kg. Under setting [2], the AD entry is “++++ (≥74%)”, the AG entry is given as “ND (^ <4%)”, the AN entry was “ND (^ <4%)” and the AP entry is “ND (^ <4%)”. Also, under setting [2], the AX entry is listed as “ND (^ <4%)”, the CE result is reported as “ND (^ <4%)”, the HL result is on record as “ND (^ <4%)” and the MS entry is “ND (^ <4%)”. In addition, under setting [2], the PS result was “ND (^ <4%)”, the SH result was “ND (^ <4%)” and the UK entry is reported as “ND (^ <4%)”.
Consider `CNC1COc2cc(F)sc2C1` (stereo not drawn) [Compound 130, 2-fluoro-N-methyl-6,7-dihydro-5H-thieno[3,2-b]pyran-6-amine hydrochloride], for which, under setting [1], the minimal effective dose was under 3 mg/kg. Under setting [2], the AD result is listed as “ND (^ <4%)”, the AG result is given as “ND (^ <4%)”, the AN result was “ND (^ <4%)” and the AP entry was “++++ (≥74%)”. Under setting [2], the AX entry was “ND (^ <4%)”, the CE entry is “ND (^ <4%)”, the HL entry was “ND (^ <4%)” and the MS result was “ND (^ <4%)”. Under setting [2], the PS entry is “ND (^ <4%)”, the SH entry was “ND (^ <4%)” and the UK result is listed as “ND (^ <4%)”.
Turning to `CNC1COc2csc(C#N)c2C1` (stereo not drawn) [Compound 139, 3-(methylamino)-3,4-dihydro-2H-thieno[3,4-b]pyran-5-carbonitrile hydrochloride], the minimal effective dose under setting [1] amounted to 0.3 mg/kg. In addition, under setting [2], the AD entry was “++ (≥24%)”, the AG result is “ND (^ <4%)”, the AN entry is given as “ND (^ <4%)” and the AP result is “ND (^ <4%)”. Further, under setting [2], the AX result is reported as “ND (^ <4%)”, the CE result is listed as “ND (^ <4%)”, the HL entry is on record as “ND (^ <4%)” and the MS result is given as “ND (^ <4%)”. Also, under setting [2], the PS result is reported as “ND (^ <4%)”, the SH entry was “ND (^ <4%)” and the UK result was “++ (≥24%)”.
For `CNC1CCc2scc(C(F)(F)F)c2C1` (stereo not drawn) [Compound 140, N-methyl-3-(trifluoromethyl)-4,5,6,7-tetrahydrobenzothiophen-5-amine hydrochloride], the minimal effective dose under setting [3] came out at 3 mg/kg. Where the note is “SmartCube class probability”, the AD result is “ND (^ <4%)”, the AG entry is reported as “ND (^ <4%)”, the AN entry is listed as “ND (^ <4%)” and the AP result was “+ (≥4%)”. Where the note is “SmartCube class probability”, the AX result is listed as “ND (^ <4%)”, the CE entry was “ND (^ <4%)”, the HL entry is reported as “ND (^ <4%)” and the MS entry is “ND (^ <4%)”. For the setting “SmartCube class probability”, the PS entry is reported as “ND (^ <4%)”, the SH result is “ND (^ <4%)” and the UK result is recorded as “+++ (≥49%)”.
For `CNC1(C)CCc2csc(C(F)(F)F)c2C1` (stereo not drawn) [Compound 141, N, 5-dimethyl-3-(trifluoromethyl)-6,7-dihydro-4H-2-benzothiophen-5-amine hydrochloride], the minimal effective dose under setting [3] was found to be 3 mg/kg. Also, where the note is “SmartCube class probability”, the AD result is on record as “+ (≥4%)”, the AG result is reported as “ND (^ <4%)”, the AN entry is given as “ND (^ <4%)” and the AP entry is listed as “ND (^ <4%)”. For the same compound, where the note is “SmartCube class probability”, the AX entry is recorded as “+++ (≥49%)”, the CE entry is reported as “ND (^ <4%)”, the HL entry was “ND (^ <4%)” and the MS result was “ND (^ <4%)”. For the setting “SmartCube class probability”, the PS entry was “ND (^ <4%)”, the SH result is listed as “ND (^ <4%)” and the UK entry is “ND (^ <4%)”.
On to `CNC1CCc2sc(F)c(C)c2C1` (stereo not drawn) [Compound 142, 2-fluoro-N, 3-dimethyl-4,5,6,7-tetrahydrobenzothiophen-5-amine hydrochloride], for which, under setting [3], the minimal effective dose turned out to be 1 mg/kg. For the same compound, under “SmartCube class probability”, the AD result is “+ (≥4%)”, the AG entry is recorded as “ND (^ <4%)”, the AN entry is given as “++ (≥24%)” and the AP result was “+ (≥4%)”. Moreover, where the note is “SmartCube class probability”, the AX entry was “ND (^ <4%)”, the CE result was “ND (^ <4%)”, the HL entry was “ND (^ <4%)” and the MS result was “ND (^ <4%)”. Moreover, where the note is “SmartCube class probability”, the PS result is given as “+ (≥4%)”, the SH result was “ND (^ <4%)” and the UK result is “+ (≥4%)”.
For the compound `CNC1COc2csc(C(F)(F)F)c2C1` (stereo not drawn) [Compound 153, N-methyl-5-(trifluoromethyl)-3,4-dihydro-2H-thieno[3,4-b]pyran-3-amine hydrochloride], the minimal effective dose under setting [3] was found to be 3 mg/kg. Also, where the note is “SmartCube class probability”, the AD entry is reported as “++++ (≥74%)”, the AG entry is recorded as “ND (^ <4%)”, the AN result was “ND (^ <4%)” and the AP result is on record as “ND (^ <4%)”. Further, for the setting “SmartCube class probability”, the AX result is recorded as “ND (^ <4%)”, the CE result is “ND (^ <4%)”, the HL result is listed as “ND (^ <4%)” and the MS entry is given as “ND (^ <4%)”. In addition, for the setting “SmartCube class probability”, the PS entry was “ND (^ <4%)”, the SH entry was “ND (^ <4%)” and the UK entry was “ND (^ <4%)”.
Consider `CNC1CC=Cc2cscc2C1` (stereo not drawn) [Compound 168, N-methyl-5,6-dihydro-4H-cyclohepta[c]thiophen-5-amine hydrochloride], for which the minimal effective dose under setting [3] turned out to be 3 mg/kg. Further, where the note is “SmartCube class probability”, the AD result is recorded as “ND (^ <4%)”, the AG result was “ND (^ <4%)”, the AN result is “ND (^ <4%)” and the AP result was “+++ (≥49%)”. Besides, under “SmartCube class probability”, the AX entry is recorded as “ND (^ <4%)”, the CE entry is “ND (^ <4%)”, the HL entry is listed as “ND (^ <4%)” and the MS entry is given as “ND (^ <4%)”. Also, under “SmartCube class probability”, the PS result is recorded as “ND (^ <4%)”, the SH entry was “ND (^ <4%)” and the UK result is reported as “ND (^ <4%)”.
Turning to `CNC1CCc2sc(C(F)(F)F)cc2C1` (stereo not drawn) [Compound 173, N-methyl-2-(trifluoromethyl)-4,5,6,7-tetrahydrobenzothiophen-5-amine hydrochloride], the minimal effective dose under setting [3] was over 3 mg/kg. For the setting “SmartCube class probability”, the AD entry is given as “ND (^ <4%)”, the AG entry is on record as “ND (^ <4%)”, the AN entry is recorded as “ND (^ <4%)” and the AP entry is “ND (^ <4%)”. Where the note is “SmartCube class probability”, the AX result was “ND (^ <4%)”, the CE result is on record as “ND (^ <4%)”, the HL entry is “ND (^ <4%)” and the MS entry is listed as “ND (^ <4%)”. In addition, where the note is “SmartCube class probability”, the PS entry was “ND (^ <4%)”, the SH result is recorded as “ND (^ <4%)” and the UK result was “++ (≥24%)”.
Take `CNC1CCc2c(C(F)(F)F)csc2C1` (stereo not drawn) [Compound 180, N-methyl-3-(trifluoromethyl)-4,5,6,7-tetrahydrobenzothiophen-6-amine hydrochloride]: the minimal effective dose under setting [3] stood at 3 mg/kg. Further, for the setting “SmartCube class probability”, the AD result is “ND (^ <4%)”, the AG entry is reported as “ND (^ <4%)”, the AN result is on record as “ND (^ <4%)” and the AP entry is listed as “+++ (≥49%)”. Where the note is “SmartCube class probability”, the AX result is recorded as “ND (^ <4%)”, the CE result is on record as “ND (^ <4%)”, the HL result is “ND (^ <4%)” and the MS result was “ND (^ <4%)”. Further, under “SmartCube class probability”, the PS entry is on record as “ND (^ <4%)”, the SH entry is “ND (^ <4%)” and the UK entry was “ND (^ <4%)”.
